Assay results as given in ChEMBL document CHEMBL3046079, “Synthesis, herbicidal activity, and mode of action of IR 5790” (J Agric Food Chem, 2001).
Calls of active or inactive are those of the source. The rule behind the calls is not given here.

Columns and labels:
[1] = Solubility of the compound in organis solvent; type: physicochemical
[2] = system: Cucumis sativus; assay: Induction of photobleaching in Cucumis sativus (cucumber) cotyledon disc at 1 to 100 uM incubated for 20 hr in dark followed by 8 hr in presence of light; type: functional
[3] = system: Stellaria media; assay: Pre-emergence herbicidal activity against Stellaria media assessed as injury at 50 g/ha applied at 24 hr post-sowing measured after 28 days relative to control; type: functional
[4] = system: Solanum nigrum; assay: Pre-emergence herbicidal activity against Solanum nigrum (black nightshade) assessed as injury at 50 g/ha applied at 24 hr post-sowing measured after 28 days relative to control; type: functional
[5] = system: Portulaca oleracea; assay: Pre-emergence herbicidal activity against Portulaca oleracea assessed as injury at 50 g/ha applied at 24 hr post-sowing measured after 28 days relative to control; type: functional
[6] = system: Chenopodium album; assay: Pre-emergence herbicidal activity against Chenopodium album assessed as injury at 50 g/ha applied at 24 hr post-sowing measured after 28 days relative to control; type: functional
[7] = system: Amaranthus retroflexus; assay: Pre-emergence herbicidal activity against Amaranthus retroflexus assessed as injury at 50 g/ha applied at 24 hr post-sowing measured after 28 days relative to control; type: functional
[8] = system: Sorghum bicolor; assay: Pre-emergence herbicidal activity against Sorghum bicolor assessed as injury at 150 g/ha applied at 24 hr post-sowing measured after 28 days relative to control; type: functional
[9] = system: Setaria viridis; assay: Pre-emergence herbicidal activity against Setaria viridis (green foxtail) assessed as injury at 150 g/ha applied at 24 hr post-sowing measured after 28 days relative to control; type: functional
[10] = system: Beta vulgaris; assay: Phytotoxicity against Beta vulgaris assessed as injury at 50 g/ha applied as pre-emergent treatment at 24 hr post-sowing measured after 28 days relative to control; type: organism-based; conditions: in vivo, other, 672 h
[11] = system: Phalaris arundinacea; assay: Pre-emergence herbicidal activity against Phalaris arundinacea assessed as injury at 50 g/ha applied at 24 hr post-sowing measured after 28 days relative to control; type: functional
[12] = system: Panicum dichotomiflorum; assay: Pre-emergence herbicidal activity against Panicum dichotomiflorum assessed as injury at 50 g/ha applied at 24 hr post-sowing measured after 28 days relative to control; type: functional
[13] = system: Echinochloa crus-galli; assay: Pre-emergence herbicidal activity against Echinochloa crus-galli (barnyard grass) assessed as injury at 50 g/ha applied at 24 hr post-sowing measured after 28 days relative to control; type: functional
[14] = system: Veronica persica; assay: Pre-emergence herbicidal activity against Veronica persica assessed as injury at 50 g/ha applied at 24 hr post-sowing measured after 28 days relative to control; type: functional
[15] = system: Capsella bursa-pastoris; assay: Post-emergence herbicidal activity against Capsella bursa-pastoris assessed as injury at 150 g/ha applied at 15 days post-sowing measured after 15 days relative to control; type: functional
[16] = system: Ammi majus; assay: Post-emergence herbicidal activity against Amni maius assessed as injury at 150 g/ha applied at 15 days post-sowing measured after 15 days relative to control; type: functional
[17] = system: Veronica persica; assay: Post-emergence herbicidal activity against Veronica persica assessed as injury at 150 g/ha applied at 15 days post-sowing measured after 15 days relative to control; type: functional
[18] = system: Persicaria maculosa; assay: Post-emergence herbicidal activity against Persicaria maculosa assessed as injury at 150 g/ha applied at 15 days post-sowing measured after 15 days relative to control; type: functional
[19] = system: Papaver rhoeas; assay: Post-emergence herbicidal activity against Papaver rhoeas assessed as injury at 150 g/ha applied at 15 days post-sowing measured after 15 days relative to control; type: functional
[20] = system: Matricaria chamomilla; assay: Post-emergence herbicidal activity against Matricaria chamomilla assessed as injury at 150 g/ha applied at 15 days post-sowing measured after 15 days relative to control; type: functional
[21] = system: Ipomoea purpurea; assay: Post-emergence herbicidal activity against Ipomoea purpurea (common morning-glory) assessed as injury at 150 g/ha applied at 15 days post-sowing measured after 15 days relative to control; type: functional
[22] = system: Geranium dissectum; assay: Post-emergence herbicidal activity against Geranium dissectum assessed as injury at 150 g/ha applied at 15 days post-sowing measured after 15 days relative to control; type: functional
[23] = system: Ammi majus; assay: Post-emergence herbicidal activity against Amni maius assessed as injury at 50 g/ha applied at 15 days post-sowing measured after 15 days relative to control; type: functional
[24] = system: Amaranthus retroflexus; assay: Post-emergence herbicidal activity against Amaranthus retroflexus assessed as injury at 50 g/ha applied at 15 days post-sowing measured after 15 days relative to control; type: functional
[25] = system: Gossypium hirsutum; assay: Phytotoxicity against Gossypium hirsutum (cotton) assessed as injury at 150 g/ha applied as post-emergent treatment at 15 days post-sowing measured after 15 days relative to control; type: organism-based; conditions: in vivo, other, 360 h
[26] = system: Solanum nigrum; assay: Post-emergence herbicidal activity against Solanum nigrum (black nightshade) assessed as injury at 5 g/ha applied at 15 days post-sowing measured after 15 days relative to control; type: functional
[27] = system: Calystegia sepium; assay: Post-emergence herbicidal activity against Calystegia sepium assessed as injury at 5 g/ha applied at 15 days post-sowing measured after 15 days relative to control; type: functional
[28] = system: Avena fatua; assay: Post-emergence herbicidal activity against Avena fatua assessed as injury at 15 g/ha applied at 15 days post-sowing measured after 15 days relative to control; type: functional
[29] = system: Persicaria maculosa; assay: Post-emergence herbicidal activity against Persicaria maculosa assessed as injury at 15 g/ha applied at 15 days post-sowing measured after 15 days relative to control; type: functional
[30] = system: Avena fatua; assay: Pre-emergence herbicidal activity against Avena fatua assessed as injury at 150 g/ha applied at 24 hr post-sowing measured after 28 days relative to control; type: functional
[31] = system: Xanthium strumarium; assay: Pre-emergence herbicidal activity against Xanthium strumarium (cocklebur) assessed as injury at 150 g/ha applied at 24 hr post-sowing measured after 28 days relative to control; type: functional
[32] = system: Sida spinosa; assay: Pre-emergence herbicidal activity against Sida spinosa assessed as injury at 150 g/ha applied at 24 hr post-sowing measured after 28 days relative to control; type: functional
[33] = system: Portulaca oleracea; assay: Pre-emergence herbicidal activity against Portulaca oleracea assessed as injury at 150 g/ha applied at 24 hr post-sowing measured after 28 days relative to control; type: functional
[34] = system: Ammi majus; assay: Post-emergence herbicidal activity against Amni maius assessed as injury at 15 g/ha applied at 15 days post-sowing measured after 15 days relative to control; type: functional
[35] = system: Gossypium hirsutum; assay: Phytotoxicity against Gossypium hirsutum (cotton) assessed as injury at 50 g/ha applied as post-emergent treatment at 15 days post-sowing measured after 15 days relative to control; type: organism-based; conditions: in vivo, other, 360 h
[36] = system: Beta vulgaris; assay: Phytotoxicity against Beta vulgaris assessed as injury at 50 g/ha applied as post-emergent treatment at 15 days post-sowing measured after 15 days relative to control; type: organism-based; conditions: in vivo, other, 360 h
[37] = system: Panicum dichotomiflorum; assay: Post-emergence herbicidal activity against Panicum dichotomiflorum assessed as injury at 50 g/ha applied at 15 days post-sowing measured after 15 days relative to control; type: functional
[38] = system: Avena fatua; assay: Post-emergence herbicidal activity against Avena fatua assessed as injury at 50 g/ha applied at 15 days post-sowing measured after 15 days relative to control; type: functional
[39] = system: Matricaria chamomilla; assay: Post-emergence herbicidal activity against Matricaria chamomilla assessed as injury at 50 g/ha applied at 15 days post-sowing measured after 15 days relative to control; type: functional

For `C#CCOc1cc(-n2nc(C(C)(C)C)sc2=O)c(Cl)cc1Cl`, which solubility [1] is on record?
Its solubility is over 250 mg/mL.

What about the Activity [2] of the same compound?
The Activity was “inactive”.

What about the Activity [3] of the same compound?
Its Activity is 0%.

And the Activity [4]?
Its Activity is 30%.

What about the Activity [5] of the same compound?
The Activity was 70%.

What about the Activity [6] of the same compound?
The Activity was 70%.

And the Activity [7]?
Its Activity is 50%.

What about the Activity [8] of the same compound?
The Activity was 50%.

What about the Activity [9] of the same compound?
Its Activity is 70%.

What about the Activity [10] of the same compound?
The Activity was 10%.

What about the Activity [11] of the same compound?
The Activity was 0%.

What about the Activity [12] of the same compound?
The Activity was 90%.

What about the Activity [13] of the same compound?
Its Activity is 30%.

What about the Activity [14] of the same compound?
Its Activity is 30%.

What about the Activity [15] of the same compound?
Its Activity is 50%.

What about the Activity [16] of the same compound?
The Activity was 10%.

And the Activity [17]?
Its Activity is 50%.

And the Activity [18]?
Its Activity is 90%.

And the Activity [19]?
Its Activity is 30%.

What about the Activity [20] of the same compound?
The Activity was 10%.

And the Activity [21]?
Its Activity is 90%.

What about the Activity [22] of the same compound?
The Activity was 50%.

And the Activity [23]?
Its Activity is 0%.

What about the Activity [24] of the same compound?
Its Activity is 50%.

What about the Activity [25] of the same compound?
The Activity was 70%.

And the Activity [26]?
Its Activity is 0%.

What about the Activity [27] of the same compound?
Its Activity is 10%.

And the Activity [28]?
Its Activity is 0%.

What about the Activity [29] of the same compound?
The Activity was 70%.

What about the Activity [30] of the same compound?
The Activity was 0%.

What about the Activity [31] of the same compound?
The Activity was 0%.

And the Activity [32]?
Its Activity is 0%.

What about the Activity [33] of the same compound?
Its Activity is 90%.

What about the Activity [34] of the same compound?
The Activity was 0%.

And the Activity [35]?
The Activity was 30%.

And the Activity [36]?
The Activity was 50%.

And the Activity [37]?
The Activity was 50%.

And the Activity [38]?
Its Activity is 0%.

And the Activity [39]?
Its Activity is 0%.
